Literature values, collected in publication PMC9171782 (Proceedings of the National Academy of Sciences of the …, 2022).

Tests used:
[1] = test system: cynomolgus monkeys
[2] = test system: GLP-1R with mutation of W33; conditions: mutation of W33 conserved in human and primate GLP-1Rs

Row | Compound | bioavailability (noninjectable formulation in the clinic) | gastrointestinal complaints (such as nausea and vomiting) | insulinotropic activity upon oral intake [1] | agonist activity at W33-mutated GLP-1R [2]
1 | Semaglutide | low bioavailability | frequent gastrointestinal complaints |  | 
2 | N#Cc1ccc(COc2cccc(C3CCN(Cc4nc5ccc(C(=O)O)cc5n4C[C@@H]4CCO4)CC3)n2)c(F)c1 [PF-06882961] |  |  | demonstrated | failed to elicit agonist activity
3 | N#Cc1ccc(COc2cccc(C3=CCN(Cc4nc5ccc(C(=O)O)nc5n4C[C@@H]4CCO4)CC3)n2)c(F)c1 [RGT1383] |  |  |  | failed to elicit agonist activity
4 | Cc1cc(-n2nc3c(c2-n2ccn(-c4ccc5c(cnn5C)c4F)c2=O)[C@H](C)N(C(=O)c2cc4cc(N5CCOC(C)(C)C5)ccc4n2[C@@]2(c4noc(=O)[nH]4)C[C@@H]2C)CC3)cc(C)c1F [CHU-128] |  |  |  | failed to elicit agonist activity
5 | Cc1cc(-n2nc3c(c2-n2ccn(-c4ccc5c(cnn5C)c4F)c2=O)[C@H](C)N(C(=O)c2cc4cc([C@H]5CCOC(C)(C)C5)ccc4n2[C@@]2(c4noc(=O)[nH]4)C[C@@H]2C)CC3)cc(C)c1F [LY3502970] |  |  | demonstrated | failed to elicit agonist activity
